According to US10632106B2, “Methods of cancer treatment with 2-(1′H-Indole-3′-carbonyl)-thiazole-4-carboxylic acid methyl ester” (Ariagen, Inc., priority 2009, dated 2020):
Marks after values point to notes of the source that are not given here.

Columns and labels:
Type in all cases: in vivo
[1] = system: T24 (Human bladder cancer) xenografts; assay: T24 xenograft growth inhibition; conditions: ITE 100-200 mg/kg i.p. once daily
Method: (§1) All the procedures related to animal handling, care, and the treatment in the study were performed following guidelines of KeyGen Biotechn Co., Ltd. (Nanjing, China), a contract research organization we hired, based on the guidance of the Association for Assessment and Accreditation of Laboratory Animal Care (AAALAC). Animals were checked for any effects of tumor growth and drug treatment on normal behavior such as mobility, food and water consumption, body weight gain/loss (bodyweights were measured every two days), eye/hair matting, and any other abnormal effect. Death and observed clinical signs were recorded. Individual animals with a tumor volume exceeding 3,000 mm^3 or animals of a group with a mean tumor volume exceeding 2,000 mm^3 were euthanized. In addition, animals showing signs of severe distress and/or pain or losing the capability of accessing adequate food or water were humanely sacrificed.
(§2) Cell lines HCT116, Siha, MFC were cultured in DMEM medium (high glucose) supplemented with 10% fetal bovine serum (FBS), SW116 and T24 in RPMI-1640 medium with 10% FBS, M14 and A375 in DMEM medium (high glucose) with 10% calf serum (CS), SGC7901 and Ketr-3 in RPMI-1640 medium with 10% CS, and CFPAC-1 in IMDM medium with 10% FBS. All of the cells were cultured, in the presence of 100 U/ml penicillin and 100 μg/ml streptomycin, at 37° C. in an atmosphere of 5% CO2 in air. […] The cells growing in an exponential phase were harvested and counted for tumor inoculation. Cell lines 5180 and U14 were maintained in ascites (peritoneal cavity fluid) of mice and were harvested and counted for tumor inoculation. […]
(§3) Tumor volume was measured every two days in two dimensions using a caliper and the volume was calculated with a formula of: V=0.5 a×b^2, where a and b are the long and short diameter (in mm) of a tumor, respectively. […] The TGD was calculated as: TGD=T−C, where T was the time (in days) required for tumors in a drug treated group to reach a predetermined mean tumor volume and C the time (in days) in the control group to reach the same volume. […]

[2] = system: CFPAC-1 (human pancreatic cancer) xenografts; assay: CFPAC-1 xenograft growth inhibition; conditions: ITE 100-200 mg/kg i.p. once daily
Method: as §1, §2, §3

[3] = ITE toxicity monitoring, 7-day i.p. dosing of ITE nano-suspension in C57BL/6 mice; conditions: for #LYMPH / #NEUT / ALT / AST / BUN / NEUT / PLT / TP / WBC: group mean
Method: ITE nano-suspension was prepared by milling ITE powder in water containing 1% CMC-Na (sodium carboxymethyl cellulose), 0.5% SLS (sodium lauryl sulfate), 0.085% PVP K90 (polyvinylpyrrolidone K90), and 0.2% Benzoate with a Media Wet Milling Machine (Dispermat SL-nano, WAB Willy A. Bachofen A G, Muttenz, Switzerland) until reached a desired size range. The particle size was determined by a Laser Diffraction Particle Size Analyzer (MS2000, Malvern Instruments, Worcestershire, UK). The parameters of particle sizes were determined as D10 (diameter of 10% of particles)=67 nm, D50=114 nm, and D90=207 nm. The nano-suspension thus prepared was stored at 4° C. until use.
Female C57BL/6 mice, 6 to 8 week old, were randomly assigned to 4 dose groups (0, 20, 100, and 500 mg/kg b.w.) each with 6 animals. ITE nano-suspension was administered by i.p. injection once daily for 7 consecutive days. Mortality, clinical signs, body weight, and food consumption were recorded. Data on hematology (3 of 6 mice) and serum chemistry (the other 3 of 6 mice) were collected. TK (Toxicokinetic) parameters were determined as described in Example 1 and plasma levels of ITE at both 1 and 3 hr. post dosing on day 1, 3, and 7 were measured. A gross observation of major organs at necropsy was conducted.

[4] = system: SGC7901 (human stomach cancer) xenografts; assay: SGC7901 xenograft growth inhibition; conditions: ITE 100-200 mg/kg i.p. once daily
Method: as §1, §2, §3

[5] = TGI at day 26, TGI=(1−ΔT/ΔC)×100%
[6] = end of therapy relative to beginning
[7] = 20 mg/kg ITE nano-suspension i.p. once daily 7 days
[8] = 100 mg/kg ITE nano-suspension i.p. once daily 7 days
[9] = 500 mg/kg ITE nano-suspension i.p. once daily 7 days
[10] = ITE nano-suspension 20, 100, 500 mg/kg b.w. i.p. once daily for 7 days

## COC(=O)c1csc(C(=O)c2c[nH]c3ccccc23)n1 [ITE, 2-(1′H-indole-3′-carbonyl)-thiazole-4-carboxylic acid methyl ester]
[1]; TGD at Vol. 1,000
  TGD: 9 days
[1]; [5]
  TGI (%): 66%
[1]; [6]
  Weight Loss: 13%
[2]; TGD at Vol. 1,000
  TGD: 8 days
[2]; [5]
  TGI (%): 58%
[2]; [6]
  Weight Loss: 14%
[3]; 20 mg/kg (low dose) group
  BUN raised over vehicle: 1.4 folds
[3]; [7]
  #LYMPH: 3.35 ×10^9 cells
  #NEUT: 1.08 ×10^9 cells
  ALT: 43.2 U/L
  AST: 118.1 U/L
  BUN: 10.5* mmol/L
  NEUT: 23.3%
  PLT: 435 ×10^9 cells
  TP: 39.5 g/L
  WBC: 4.68 ×10^9 cells
[3]; 100 mg/kg (mid) group
  WBC raised: 2.6 folds
[3]; [8]
  #LYMPH: 3.5 ×10^9 cells
  #NEUT: 3.62 ×10^9 cells
  ALT: 33.2 U/L
  AST: 131.6 U/L
  BUN: 7.3 mmol/L
  NEUT: 46.6%
  PLT: 668 ×10^9 cells
  TP: 40.8 g/L
  WBC: 10.77* ×10^9 cells
[3]; 500 mg/kg (high dose) group
  ALT raised over vehicle control: 3.2 folds
  TP (total protein) raised over vehicle control: 1.2 folds
[3]; 500 mg/kg (high dose) group, not significant
  AST raised over vehicle control: 1.8 folds
[3]; 500 mg/kg (high) group, not significant
  WBC raised: 2.0 folds
[3]; [9]
  #LYMPH: 4.81 ×10^9 cells
  #NEUT: 3.4 ×10^9 cells
  ALT: 74.5* U/L
  AST: 151.2 U/L
  BUN: 9.1 mmol/L
  NEUT: 40.5%
  PLT: 1075 ×10^9 cells
  TP: 49.5* g/L
  WBC: 8.38 ×10^9 cells
[3]; [10]
  body weight loss: no significant body weight loss
  mortality: no mortality observed except that one mouse in 20 mg/kg b.w. (low dose) group died
[3]; all 3 ITE treated groups, day 1 of the study
  food consumption: dramatic decrease in food consumption
[3]; all the ITE treated groups
  major organ inspection at necropsy: No abnormality was observed
[4]; TGD at Vol. 1,000
  TGD: 4 days
[4]; TGI at day 18, TGI=(1−ΔT/ΔC)×100%
  TGI (%): 50%
[4]; [6]
  Weight Loss: 12%
